Assay results taken from PubChem BioAssay AID328 (DTP/NCI, 2004).
Where “and” joins values, the source holds several entries; their conditions need not be identical. Identical values can stand only once. Inconclusive results and toxic doses are left out.

Test system: BDF1 mice, P388 leukemia ip, median survival T/C
Assay: NCI In Vivo Anticancer Drug Screen. Data for tumor model P388 Leukemia (intraperitoneal) in B6D2F1 (BDF1) mice
Conditions: endpoint: median survival time, higher = longer survival
In short: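 Read-out is survival of treated animals expressed relative to the vehicle group, as a T/C ratio.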

[1] = dose: 100.0 mg/kg/injection, schedule: Q01DX009 (ip), vehicle: Klucel (hydroxypropylcellulose) (HPC)
[2] = dose: 100.0 mg/kg/injection, schedule: Q04DX003 (ip), vehicle: Klucel (hydroxypropylcellulose) (HPC)
[3] = dose: 200.0 mg/kg/injection, schedule: Q01DX009 (ip), vehicle: Klucel (hydroxypropylcellulose) (HPC)
[4] = dose: 200.0 mg/kg/injection, schedule: Q04DX003 (ip), vehicle: Klucel (hydroxypropylcellulose) (HPC)
[5] = dose: 400.0 mg/kg/injection, schedule: Q04DX003 (ip), vehicle: Klucel (hydroxypropylcellulose) (HPC)
[6] = dose: 100.0 mg/kg/injection, schedule: Q01DX001 (ip), vehicle: saline with Tween-80
[7] = dose: 200.0 mg/kg/injection, schedule: Q01DX001 (ip), vehicle: saline with Tween-80
[8] = dose: 400.0 mg/kg/injection, schedule: Q01DX001 (ip), vehicle: saline with Tween-80
[9] = dose: 25.0 mg/kg/injection, schedule: Q04DX003 (ip), vehicle: saline with Tween-80
[10] = dose: 100.0 mg/kg/injection, schedule: Q04DX003 (ip), vehicle: saline with Tween-80
[11] = dose: 200.0 mg/kg/injection, schedule: Q04DX003 (ip), vehicle: saline with Tween-80
[12] = dose: 400.0 mg/kg/injection, schedule: Q04DX003 (ip), vehicle: saline with Tween-80
[13] = dose: 100.0 mg/kg/injection, schedule: Q04DX003 (ip), vehicle: saline
[14] = dose: 200.0 mg/kg/injection, schedule: Q04DX003 (ip), vehicle: saline
[15] = dose: 50.0 mg/kg/injection, schedule: Q04DX002 (ip), vehicle: saline with Tween-80
[16] = dose: 200.0 mg/kg/injection, schedule: Q04DX002 (ip), vehicle: saline with Tween-80
[17] = dose: 50.0 mg/kg/injection, schedule: Q01DX009 (ip), vehicle: other
[18] = dose: 50.0 mg/kg/injection, schedule: Q04DX003 (ip), vehicle: saline with Tween-80
[19] = dose: 50.0 mg/kg/injection, schedule: Q04DX003 (ip), vehicle: saline
[20] = dose: 400.0 mg/kg/injection, schedule: Q01DX009 (ip), vehicle: Klucel (hydroxypropylcellulose) (HPC)
[21] = dose: 50.0 mg/kg/injection, schedule: Q01DX009 (ip), vehicle: saline with Tween-80
[22] = dose: 100.0 mg/kg/injection, schedule: Q01DX009 (ip), vehicle: saline with Tween-80
[23] = dose: 200.0 mg/kg/injection, schedule: Q01DX009 (ip), vehicle: saline with Tween-80

CC(=O)N1CCCC1=O
T/C [1]: 95 % of control
T/C [2]: 100 % of control
T/C [3]: 86 % of control
T/C [4]: 100 % of control
T/C [5]: 100 % of control

CC(C)n1c(=O)c2ccccc2[s+]1-c1ccccc1 (stereo unspecified)
T/C [6]: 95 % of control
T/C [7]: 95 % of control
T/C [8]: 92 % of control

CCc1noc(CC)c1CC1=C2CCC3(C)CCC(C)(C)CC3C2(C)CCC1=O (stereo unspecified)
T/C [6]: 95 % of control
T/C [7]: 90 % of control
T/C [8]: 90 % of control

NC1(C(=O)O)CCCc2ccc(N(CCCl)CCCl)cc21 (stereo unspecified)
T/C (dose: 16.5 mg/kg/injection, schedule: Q04DX003 (ip), vehicle: saline with Tween-80): 263 % of control and 272 % of control
T/C [9]: 272 % of control
T/C (dose: 37.5 mg/kg/injection, schedule: Q04DX003 (ip), vehicle: saline with Tween-80): 177 % of control

O=C(CNC(c1ccccc1)(c1ccccc1)c1ccccc1)OC(c1ccccc1)c1ccccc1
T/C [10]: 104 % of control
T/C [11]: 104 % of control
T/C [12]: 100 % of control

CN(C)CC1CCC/C(=C\C=C\c2ccccc2)C1=O (stereo unspecified)
T/C (dose: 4.37 mg/kg/injection, schedule: Q01DX009 (ip), vehicle: Klucel (hydroxypropylcellulose) (HPC)): 104 % of control and 113 % of control
T/C (dose: 8.75 mg/kg/injection, schedule: Q01DX009 (ip), vehicle: Klucel (hydroxypropylcellulose) (HPC)): 109 % of control
T/C (dose: 17.5 mg/kg/injection, schedule: Q01DX009 (ip), vehicle: Klucel (hydroxypropylcellulose) (HPC)): 109 % of control and 118 % of control
T/C (dose: 35.0 mg/kg/injection, schedule: Q01DX009 (ip), vehicle: Klucel (hydroxypropylcellulose) (HPC)): 120 % of control
T/C (dose: 50.0 mg/kg/injection, schedule: Q01DX009 (ip), vehicle: Klucel (hydroxypropylcellulose) (HPC)): 120 % of control
T/C (dose: 75.0 mg/kg/injection, schedule: Q01DX009 (ip), vehicle: Klucel (hydroxypropylcellulose) (HPC)): 120 % of control

O=C(COCc1ccccc1)OCc1ccccc1
T/C [13]: 109 % of control
T/C [14]: 104 % of control
T/C (dose: 400.0 mg/kg/injection, schedule: Q04DX003 (ip), vehicle: saline): 113 % of control

CCOC(=O)c1cnc2ccc3ccccc3n2c1=O
T/C [15]: 101 % of control
T/C (dose: 100.0 mg/kg/injection, schedule: Q04DX002 (ip), vehicle: saline with Tween-80): 101 % of control
T/C [16]: 93 % of control

CC1(C)OS2(OC(C)(C)c3ccccc32)c2ccccc21
T/C [17]: 101 % of control
T/C (dose: 100.0 mg/kg/injection, schedule: Q01DX009 (ip), vehicle: other): 107 % of control
T/C (dose: 200.0 mg/kg/injection, schedule: Q01DX009 (ip), vehicle: other): 117 % of control

CC[C@@H]1C[C@H]2CC3c4[nH]c5ccc(O)cc5c4CCN(C2)C31
T/C (dose: 25.0 mg/kg/injection, schedule: Q01DX001 (ip), vehicle: saline with Tween-80): 106 % of control
T/C (dose: 50.0 mg/kg/injection, schedule: Q01DX001 (ip), vehicle: saline with Tween-80): 104 % of control
T/C [6]: 108 % of control

COc1ccc(OC)c(C(=O)C=C(C(F)(F)F)C(F)(F)F)c1
T/C (dose: 33.0 mg/kg/injection, schedule: Q01DX009 (ip), vehicle: other): 109 % of control
T/C [17]: 113 % of control
T/C (dose: 75.0 mg/kg/injection, schedule: Q01DX009 (ip), vehicle: other): 122 % of control

NC(=O)NC(=O)/C=C/C(=O)O
T/C [9]: 91 % of control
T/C [18]: 100 % of control
T/C [10]: 91 % of control

CC(O)CN1CCCC1 (stereo unspecified)
T/C [19]: 91 % of control
T/C [13]: 104 % of control
T/C [14]: 104 % of control

O=[N+]([O-])c1cccc2ccc(N/N=C/c3ccccc3O)nc12
T/C (dose: 10.0 mg/kg/injection, schedule: Q01DX009 (ip), vehicle: Klucel (hydroxypropylcellulose) (HPC)): 96 % of control
T/C (dose: 20.0 mg/kg/injection, schedule: Q01DX009 (ip), vehicle: Klucel (hydroxypropylcellulose) (HPC)): 122 % of control
T/C (dose: 40.0 mg/kg/injection, schedule: Q01DX009 (ip), vehicle: Klucel (hydroxypropylcellulose) (HPC)): 111 % of control

C=C1C(=O)OC2/C=C(\C)C(=O)/C=C\C(C)(O)CC(OC(=O)C(C)C)C12 (stereo unspecified)
T/C (dose: 25.0 mg/kg/injection, schedule: Q01DX009 (ip), vehicle: saline + alcohol): 100 % of control

COC(=O)[C@@H]1[C@H](O)[C@H](C)[C@H](O)[C@@](C)(O)/C=C\C=C(C)C(=O)Nc2c(C)c(OC(C)=O)c3c(c2O)C(=O)C(C)=C2OCOC(=C23)C(C)=C[C@@](C)(O)[C@H](O)[C@@H](C)[C@H]1OC(C)=O
T/C [1]: 93 % of control and 105 % of control
T/C [3]: 120 % of control and 108 % of control
T/C [20]: 121 % of control and 113 % of control
T/C (dose: 400.0 mg/kg/injection, schedule: Q01DX009 (ip), vehicle: saline): 90 % of control

COc1cccc2c1C(=O)c1c(O)c3c(c(O)c1C2=O)C[C@@](O)(/C(CO)=N/NC(=O)c1ccccc1)C[C@@H]3OC1CC(N)C(O)C(C)O1 (stereo partly specified)
T/C (dose: 3.12 mg/kg/injection, schedule: Q01DX009 (ip), vehicle: water): 180 % of control
T/C (dose: 6.25 mg/kg/injection, schedule: Q01DX009 (ip), vehicle: water): 252 % of control
T/C (dose: 12.5 mg/kg/injection, schedule: Q01DX009 (ip), vehicle: water): 267 % of control

O=N[O-].O=N[O-].[NH-]CC[NH-].[Pt+2]
T/C (dose: 25.0 mg/kg/injection, schedule: Q04DX003 (ip), vehicle: saline): 95 % of control
T/C [19]: 108 % of control
T/C (dose: 100.0 mg/kg/injection, schedule: Q01DX009 (ip), vehicle: saline): 90 % of control
T/C [13]: 95 % of control

O=C(OC1C2C=CC(C(O)O2)C1c1ccccc1)c1ccc(Cl)cc1 (stereo unspecified)
T/C [6]: 94 % of control
T/C [7]: 92 % of control

CCCN(CCC)CCCC#N
T/C [18]: 100 % of control
T/C [10]: 100 % of control
T/C [11]: 100 % of control

Nc1cc(/C=C/c2ccc([N+](=O)[O-])cc2)nc2ccccc12
T/C (dose: 25.0 mg/kg/injection, schedule: Q04DX002 (ip), vehicle: saline with Tween-80): 101 % of control
T/C [21]: 88 % of control
T/C [15]: 117 % of control
T/C [22]: 94 % of control
T/C [23]: 94 % of control
T/C [16]: 88 % of control

Cc1ccc(C(SCC(N)C(=O)O)(c2ccc(C)cc2)c2ccc(C)cc2)cc1 (stereo unspecified)
T/C (dose: 65.0 mg/kg/injection, schedule: Q04DX003 (ip), vehicle: Klucel (hydroxypropylcellulose) (HPC)): 159 % of control
T/C [2]: 175 % of control
T/C [4]: 185 % of control
T/C (dose: 264.0 mg/kg/injection, schedule: Q04DX003 (ip), vehicle: Klucel (hydroxypropylcellulose) (HPC)): 230 % of control and 150 % of control
T/C [5]: 177 % of control and 190 % of control (2×)

O=c1[nH]nc(NCCCO)c2ccccc12
T/C [21]: 112 % of control
T/C [22]: 87 % of control
T/C [23]: 96 % of control

O=C1c2ccccc2C(=O)c2c(Cl)cccc21
T/C (dose: 12.5 mg/kg/injection, schedule: Q01DX009 (ip), vehicle: saline with Tween-80): 113 % of control
T/C (dose: 25.0 mg/kg/injection, schedule: Q01DX009 (ip), vehicle: saline with Tween-80): 100 % of control
T/C [21]: 100 % of control
T/C [10]: 95 % of control
T/C [11]: 100 % of control
T/C [12]: 95 % of control

CCCCCCCCCCCCOc1ccccc1C=O
T/C (dose: 50.0 mg/kg/injection, schedule: Q04DX003 (ip), vehicle: Klucel (hydroxypropylcellulose) (HPC)): 104 % of control
T/C [2]: 100 % of control
T/C (dose: 100.0 mg/kg/injection, schedule: Q04DX003 (ip), vehicle: saline sonified): 118 % of control
T/C [4]: 118 % of control
T/C (dose: 200.0 mg/kg/injection, schedule: Q04DX003 (ip), vehicle: saline sonified): 122 % of control
T/C [5]: 109 % of control

O=C(COc1ccccc1)NCCO
T/C [1]: 100 % of control
T/C [2]: 91 % of control
T/C [3]: 100 % of control
T/C [4]: 91 % of control
T/C [20]: 100 % of control
T/C [5]: 91 % of control
